In BindingDB's records for doi:10.7270/Q2B27SRF (Broad Institute, 2010):

Each compound was assayed against Serine/threonine-protein kinase 33 (Homo sapiens, UniProt Q9BYT3) (assay: inhibition of STK33 phosphorylation of MBP – biochemical, luminescence, cell-free, retest, dose response (AID 2821)).
Chain of Serine/threonine-protein kinase 33 (Q9BYT3 whole entry): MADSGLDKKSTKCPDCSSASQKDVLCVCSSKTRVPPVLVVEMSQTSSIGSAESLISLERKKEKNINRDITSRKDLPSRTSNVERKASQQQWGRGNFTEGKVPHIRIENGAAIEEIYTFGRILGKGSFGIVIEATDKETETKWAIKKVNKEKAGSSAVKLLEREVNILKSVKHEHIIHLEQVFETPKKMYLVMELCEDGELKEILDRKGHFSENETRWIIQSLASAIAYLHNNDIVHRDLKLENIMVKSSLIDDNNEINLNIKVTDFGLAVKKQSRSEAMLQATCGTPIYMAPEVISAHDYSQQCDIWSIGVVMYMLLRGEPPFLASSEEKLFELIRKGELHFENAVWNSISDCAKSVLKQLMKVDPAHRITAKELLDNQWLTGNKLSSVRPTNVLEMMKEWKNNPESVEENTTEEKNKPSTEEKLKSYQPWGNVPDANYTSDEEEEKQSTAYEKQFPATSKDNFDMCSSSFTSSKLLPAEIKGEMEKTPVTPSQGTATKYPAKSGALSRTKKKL

SMILES	EC50 [µM]
O=c1c(O)c(-c2cc(O)c(O)c(O)c2)oc2cc(O)cc(O)c12	18
COc1c(O)cc2oc(-c3ccc(O)c(O)c3)cc(=O)c2c1O	11
COC1(OC)N=C(N)C2(C#N)C(c3ccc4c(c3)OCO4)C12C#N (stereo unspecified)	> 120
Oc1cc(O)cc(/C=C/c2ccc(O)c(O)c2)c1	12.8
Nc1c(C(=O)O)ccc2c1C(=O)c1ccccc1C2=O	22.2
COc1ccc(C(=O)NNC(=O)c2ccccn2)cc1	21.8
COc1ccc(NC(=O)c2cc([N+](=O)[O-])ccc2O)cc1	18.6
CCC(Sc1ccc2nnc(-c3ccc(OC)c(OC)c3)n2n1)C(=O)O (stereo unspecified)	13.2
Cc1nn(C)cc1/C=C/C(=O)c1ccc(O)cc1	29
Cc1ccc(NC(=S)Nc2ccc3cn[nH]c3c2)c(C)c1	> 120
O=c1c2ccccc2sc2ccc(NCCCN3CCOCC3)cc12	16.8
CNC(=S)Nc1cccc(-c2cnc3ccccc3n2)c1	> 120
COc1ccc(C(=O)ON=C(N)c2ccccc2)cc1	> 120
CNC(=O)c1cnc2ccc(S(=O)(=O)Nc3ccccc3F)cc2c1O	> 120
COc1ccc2c(c1)C(=Cc1cnc[nH]1)C(=O)N2	7.73
CN(C)c1cc2c(c(N(C)C)c1)C(=O)c1ccccc1C2=O [1,3-bis(dimethylamino)-9,10-anthraquinone]	23.8
Oc1ccc(C=NNC(=S)NN=Cc2ccc(O)cc2)cc1 [1,3-bis[(4-oxo-1-cyclohexa-2,5-dienylidene)methylamino]thiourea]	40.9
COc1cc(C)c2c(c1C=O)Oc1c(c(C)c(O)c3c1C(O)OC3=O)OC2=O (stereo unspecified) [1,4-Dihydroxy-10-methoxy-5,8-dimethyl-3,7-dioxo-1,3-dihydro-7H-benzo[e]furo[3',4':3,4]benzo[b][1,4]dioxepine-11-carbaldehyde]	32
Nc1ccc(N)c2c(O)c3ccccc3c(O)c12 [1,4-bis(azanyl)-2,3-dihydroanthracene-9,10-dione]	23.8
S=C(NCc1ccccc1)Nc1ccc2cn[nH]c2c1 [1-(1H-indazol-6-yl)-3-(phenylmethyl)thiourea]	> 120
Nc1c(O)ccc2c1C(=O)c1ccccc1C2=O [1-amino-2-hydroxy-9,10-anthraquinone]	34.7
CCCCCCCCCCCCCCCCn1cc[n+](C)c1 [1-cetyl-3-methyl-imidazol-3-ium;bromide]	> 120
CCCCCCCCCCCCCCCC[n+]1cccc2ccccc21 [1-cetylquinolin-1-ium;iodide]	> 120
CCn1c(C)nc2cc(-c3nc4n(n3)Cc3ccccc3-4)ccc21 [2-(1-ethyl-2-methyl-5-benzimidazolyl)-5H-[1,2,4]triazolo[5,1-a]isoindole]	11

SMILES	EC50 [µM]
CCN1C=CC(=C2C(=O)c3ccccc3C2=O)C=C1 [2-(1-ethyl-4-pyridinylidene)indene-1,3-dione]	14
COc1ccccc1Nc1oc2cc(=O)ccc-2cc1C(N)=O [2-(2-methoxyanilino)-7-oxo-1-benzopyran-3-carboxamide]	30.9
O=c1c(O)c(-c2ccc(O)c(O)c2)oc2cc(O)cc(O)c12 [2-(3,4-dihydroxyphenyl)-3,5,7-trihydroxy-chromone;hydrate]	12.4
COc1cc(C=C2SC(Nc3ccc(Cl)c(C(=O)O)c3)=NC2=O)c(Br)c(Br)c1O [2-Chloro-5-[5-(2,3-dibromo-4-hydroxy-5-methoxy-benzylidene)-4-oxo-thiazolidin-2-ylideneamino]-benzoic acid]	15.9
CN1CCCC1CCNc1ccc2sc3ccccc3c(=O)c2c1 (stereo unspecified) [2-[2-(1-methyl-2-pyrrolidinyl)ethylamino]-9-thioxanthenone]	16.6
O=C(CSc1nc(N2CCCCC2)nc(N2CCCCC2)n1)c1ccccc1 [2-[[4,6-di(piperidin-1-yl)-1,3,5-triazin-2-yl]sulfanyl]-1-phenyl-ethanone]	> 120
N#C/C(=C/C=C/c1ccccc1)C(=O)Nc1ccccc1 [2-cyano-N,5-diphenyl-2,4-pentadienamide]	> 120
c1ccc2c3c([nH]c2c1)-c1n[nH]cc1CC3 [3,4,16-triazatetracyclo[7.7.0.0^{2,6}.0^{10,15}]hexadeca-1(9),2,5,10,12,14-hexaene]	61
COc1cc2c(ccc3cc(OC)c(OC)c(O)c32)cc1O [3,6,7-trimethoxyphenanthrene-2,5-diol]	27.4
CCOc1ccc(-c2ccc(SC)nn2)cc1 [3-(4-ethoxyphenyl)-6-(methylthio)pyridazine]	> 120
O=C(CCc1ccc(O)cc1)c1c(O)cc(O)cc1O [3-(4-hydroxyphenyl)-1-(2,4,6-trihydroxyphenyl)propan-1-one]	21.4
NC(=O)c1sc2nc(-c3ccco3)ccc2c1N [3-Amino-6-furan-2-yl-thieno[2,3-b]pyridine-2-carboxylic acid amide]	25.5
Cc1cc(C=C2C(=O)c3ccccc3C2=O)c(C)n1-c1cccc(C(=O)O)c1 [3-[3-[[1,3-bis(oxidanylidene)inden-2-ylidene]methyl]-2,5-dimethyl-pyrrol-1-yl]benzoic acid]	> 120
Cc1ccc(-c2nn(CCC(=O)O)cc2/C=C\C(=O)c2ccc(Br)cc2)cc1 [3-[4-[(Z)-3-(4-bromophenyl)-3-oxoprop-1-enyl]-3-(4-methylphenyl)pyrazol-1-yl]propanoic acid]	19.3
O=c1c(-c2c(O)cc(O)c3c2O[C@H](c2ccc(O)cc2)CC3)c(-c2ccc(O)cc2)oc2cc(O)cc(O)c12 [3-[(2S)-5,7-dihydroxy-2-(4-hydroxyphenyl)-3,4-dihydro-2H-1-benzopyran-8-yl]-5,7-dihydroxy-2-(4-hydroxyphenyl)-1-benzopyran-4-one]	> 120
CCn1c(/C=C/c2ccc([N+](=O)[O-])o2)nc2ccccc2c1=O [3-ethyl-2-[(E)-2-(5-nitro-2-furanyl)ethenyl]-4-quinazolinone]	> 120
Cc1c(C(=O)OCC(=O)N2c3ccccc3CC2C)oc2ccccc12 (stereo unspecified) [3-methyl-2-benzofurancarboxylic acid [2-(2-methyl-2,3-dihydroindol-1-yl)-2-oxoethyl] ester]	> 120
Fc1ccc(-c2c[nH]cn2)cc1 [4-(4-fluorophenyl)-1H-imidazole]	> 120
CCN(CC)c1ccc(Nc2nc(N3CCOCC3)c3ccccc3n2)cc1 [4-N,4-N-diethyl-1-N-(4-morpholin-4-ylquinazolin-2-yl)benzene-1,4-diamine]	> 120
CC(N=Nc1ccnc2cc(Cl)ccc12)c1ccc(O)cc1 (stereo unspecified) [4-[1-[(7-chloro-4-quinolinyl)hydrazo]ethylidene]-1-cyclohexa-2,5-dienone]	22.9
O=C1N=c2ccccc2=C1NNc1ccc(C(=O)O)cc1 [4-[2-(2-oxidanylideneindol-3-yl)hydrazinyl]benzoic acid]	36.8
Cc1cc(C=C2C(=O)c3ccccc3C2=O)c(C)n1-c1ccc(C(=O)O)cc1 [4-[3-[(1,3-dioxo-2-indenylidene)methyl]-2,5-dimethyl-1-pyrrolyl]benzoic acid]	19.3
CCOc1ccc(-c2cc(CCCC(=O)NCCCOC)no2)cc1 [4-[5-(4-ethoxyphenyl)-1,2-oxazol-3-yl]-N-(3-methoxypropyl)butanamide]	> 120
Cc1cc(C(=O)O)ccc1N=Cc1c(O)ccc2ccccc12 [4-[(2-Hydroxy-naphthalen-1-ylmethylene)-amino]-3-methyl-benzoic acid]	22.7

Now from value to compound:

EC50 [µM]	SMILES
4.93	COc1cc(N=CC2C(=O)Nc3ccccc32)cc(OC)c1OC (stereo unspecified)
5.22	COc1ccc(N=CC2C(=O)Nc3ccccc32)cc1OC (stereo unspecified)
0.71	COc1cc(C=CC(=O)CC(=O)C=Cc2ccc(O)c(OC)c2)ccc1O
2.86	CC(C)n1cnc2c(Nc3cccc(Cl)c3)nc(N(CCO)CCCO)nc21
1.84	CC(C)n1cnc2c(Nc3cccc(Cl)c3)nc(NCCCO)nc21
9.23	COc1cc(C=NNC2=c3ccccc3=NC2=O)ccc1O
8.73	COC(=O)c1ccccc1NC(=O)N1CCN(C/C=C/c2ccccc2)CC1
5.49	O=C1c2ccccc2C(=O)C1c1ccccn1
4.91	NS(=O)(=O)c1ccc2c(c1)C(N=O)c1cc(S(N)(=O)=O)ccc1-2
2.43	Oc1ccc(Nc2nc(-c3ccccc3O)nc3ccccc23)cc1
7.97	Cc1cccc(N2CCN(CCCNC(=O)c3ccc(NC(=O)C4=CSCCO4)cc3)CC2C)c1 (stereo unspecified)
3.82	O=c1c2ccccc2oc2ccc(NCCCN3CCOCC3)cc12
6.32	CN(C)C/C=C/C(=O)Nc1cccc(-c2c[nH]c3ncnc(Oc4ccc(NC(=O)CC(=O)Nc5ccc(F)cc5)cc4F)c23)c1
7.93	CCN1C(=O)CC(c2ccccc2)N(C2CCCC2)c2nc(Nc3ccc(C(=O)NC4CCN(C)CC4)cc3OC)ncc21 (stereo unspecified)
3.55	Nc1cc(C(=O)O)c(N)c2c1C(=O)c1ccccc1C2=O [1,4-bis(azanyl)-9,10-bis(oxidanylidene)anthracene-2-carboxylic acid]
2.48	CCCn1c2ccc(C(C)N=O)cc2c2cc(C(C)N=O)ccc21 (stereo unspecified) [1-[6-(1-hydroxyiminoethyl)-9-propyl-3-carbazolyl]ethanone oxime]
8.93	CCCN1C=CC(=C2C(=O)c3ccccc3C2=O)C=C1 [2-(1-propyl-4-pyridinylidene)indene-1,3-dione]
10.3	O=C1c2ccccc2C(=O)C1c1ccncc1 [2-(1H-pyridin-4-ylidene)indane-1,3-quinone]
5.66	CCN(CC)c1ccc(/C=C2\C(=O)c3ccc(C(=O)O)cc3C2=O)cc1 [2-[1-(4-Diethylamino-phenyl)-meth-(E)-ylidene]-1,3-dioxo-indan-5-carboxylic acid]
8.86	CCSc1nc(N2CCOCC2)c2c(c1C#N)CCCC2 [3-(ethylthio)-1-(4-morpholinyl)-5,6,7,8-tetrahydroisoquinoline-4-carbonitrile]
5.25	CCc1ncc(C=C2C(=O)Nc3ccccc32)[nH]1 [3-[(Z)-(2-ethyl-1H-imidazol-5-yl)methylidene]-1H-indol-2-one]
3.42	Cc1ncc(C=C2C(=O)Nc3ccccc32)[nH]1 [3-[(Z)-(2-methyl-1H-imidazol-4-yl)methylidene]-1H-indol-2-one]
4.59	N#Cc1c2ccc(O)cc2n2ccccc12 [3-hydroxypyrido[1,2-a]indole-10-carbonitrile]
